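In this assay, cells in 96-well plates receive the compound at five concentrations for 48 hours. Endpoints are linearly interpolated between the surrounding concentrations. GI50 is the concentration that inhibits growth by half.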 Calls of active or inactive are those of the source. No stated cut-off is given here; in the data, active = GI50 up to about 1.1 µM and inactive = higher.
Experiments:
Experiment in all cases: NCI anticancer screen, dose series, 48 h
[1] = tested on: SW-620
[2] = tested on: SF-539
[3] = tested on: CCRF-CEM
[4] = tested on: HOP-92
[5] = tested on: OVCAR-3
[6] = tested on: UACC-257
[7] = tested on: DLD-1
[8] = tested on: NCI-H460
[9] = tested on: KM-20L2
[10] = tested on: OVCAR-8
[11] = tested on: EKVX
[12] = tested on: MOLT-4
[13] = tested on: SN12C
[14] = tested on: SNB-78

Measured: GI50

Cc1nc2c(o1)/C(=N\c1ccccc1)c1ccccc1/C2=N/c1ccccc1
inactive: [1] 16.9 µM | [2] > 100 µM | [3] 58.2 µM | [4] 49.2 µM | [5] 26.6 µM | [6] > 100 µM | [7] 53.6 µM | [8] 39.4 µM | [9] > 100 µM | [10] > 100 µM | [11] 79.1 µM | [12] > 100 µM | [13] 63.4 µM | [14] 70.1 µM

COC1/C(=C\c2ccccc2I)c2ccccc2N1C(C)=O (centres undefined)
inactive: [1] 20.6 µM | [2] 16.4 µM | [3] 17 µM | [4] 2.2 µM | [5] 16.6 µM | [6] 18.3 µM | [7] 15.5 µM | [8] 17.6 µM | [9] 15.7 µM | [10] 30 µM | [11] 15.1 µM | [12] 14.1 µM | [13] 15.2 µM | [14] 25.2 µM

COC(=O)C1CCC[C@H]2C(CO)=C(C)C(=O)[C@@H]12 (some centres undefined)
inactive: [1] > 100 µM | [2] > 100 µM | [3] > 100 µM | [4] > 100 µM | [6] > 100 µM | [7] > 100 µM | [8] > 100 µM | [9] > 100 µM | [10] > 100 µM | [11] > 100 µM | [12] > 100 µM | [13] > 100 µM | [14] > 100 µM

CC1(c2cc3c(cc2Br)OCO3)SCCCS1
inactive: [1] 42.1 µM | [2] 36.5 µM | [3] 32.1 µM | [4] 17.7 µM | [5] 38.4 µM | [7] 34.8 µM | [8] 36.2 µM | [9] 34.4 µM | [10] 47.5 µM | [11] 77.1 µM | [12] 24.7 µM | [13] 39.3 µM | [14] 24.3 µM

Cc1cccc(C(C)(C)C)c1NC(=O)CCc1nnc(S)[nH]1
inactive: [1] > 100 µM | [2] > 100 µM | [3] > 100 µM | [4] > 100 µM | [5] > 100 µM | [6] > 100 µM | [7] > 100 µM | [8] > 100 µM | [9] > 100 µM | [10] > 100 µM | [12] > 100 µM | [13] > 100 µM | [14] > 100 µM

Cc1ccccc1C(=O)c1c(O)c2c(c(O)c1Br)CCCC2
inactive: [1] 18.7 µM | [2] 18.5 µM | [4] 23.2 µM | [5] 13.8 µM | [6] 14.7 µM | [7] 23 µM | [8] 22 µM | [9] 19.4 µM | [10] 17.3 µM | [11] 17.6 µM | [12] 6.14 µM | [13] 18.1 µM | [14] 21.5 µM

N#CCCc1nc2ccc(Br)cc2c(=O)n1-c1ccc(O)c([N+](=O)[O-])c1
inactive: [1] 22.1 µM | [2] 18.8 µM | [3] 19.7 µM | [4] 25.4 µM | [5] 18.7 µM | [6] 30.1 µM | [7] 16.9 µM | [8] 27.5 µM | [9] 46.3 µM | [10] 26.9 µM | [11] 25.5 µM | [12] 19.6 µM | [13] 19 µM | [14] 24.2 µM

CCc1ccccc1NC(=O)CCc1n[nH]c(=S)o1
inactive: [1] 18.6 µM | [2] 76.2 µM | [3] > 100 µM | [4] > 100 µM | [5] > 100 µM | [6] > 100 µM | [7] 92.5 µM | [8] > 100 µM | [9] > 100 µM | [10] > 100 µM | [11] > 100 µM | [12] > 100 µM | [13] > 100 µM | [14] > 100 µM

O=C(CC(=O)n1nc(-c2ccccc2)c(/N=N/c2ccc(Cl)cc2)c1-c1ccccc1)Nc1ccc(Cl)cc1
inactive: [1] > 44.1 µM | [2] > 100 µM | [3] > 43.5 µM | [4] > 91 µM | [5] > 100 µM | [6] > 49.2 µM | [7] 18.6 µM | [8] > 43.4 µM | [9] > 76 µM | [10] 63.4 µM | [11] > 100 µM | [12] > 100 µM | [13] > 100 µM | [14] > 100 µM

C=C1CCC23CC(CC[C@@H]2[C@@]12C[C@@H](c1ccoc1)OC2=O)OC3=O (some centres undefined)
inactive: [1] > 100 µM | [2] > 100 µM | [3] 63 µM | [4] > 100 µM | [5] > 100 µM | [6] > 100 µM | [7] > 100 µM | [8] > 100 µM | [9] > 100 µM | [10] > 100 µM | [11] > 100 µM | [12] > 100 µM | [13] > 100 µM | [14] > 100 µM

CC1OC=CC(=O)C1O (centres undefined)
inactive: [1] > 100 µM | [2] > 100 µM | [3] 69.7 µM | [4] > 100 µM | [5] > 100 µM | [6] > 100 µM | [7] > 100 µM | [8] > 100 µM | [9] > 100 µM | [10] > 100 µM | [11] > 100 µM | [12] > 100 µM | [13] > 100 µM | [14] > 100 µM

O=C(O)COc1ccccc1C(=O)Nc1ccccc1
inactive: [1] > 100 µM | [2] > 100 µM | [3] > 100 µM | [4] > 100 µM | [5] > 100 µM | [6] > 100 µM | [7] > 100 µM | [8] > 100 µM | [9] > 100 µM | [10] > 100 µM | [11] > 100 µM | [12] > 100 µM | [13] > 100 µM | [14] > 100 µM

CC1=C[C@@H]2Cc3occc3C(C)(C)[C@@H]2CC1
inactive: [1] 17.1 µM | [2] 23.8 µM | [3] 18.3 µM | [4] 19.5 µM | [5] 17.7 µM | [6] 22.5 µM | [7] 17.7 µM | [9] 18.5 µM | [10] 19.5 µM | [11] 18 µM | [12] 19.6 µM | [13] 15.8 µM | [14] 27.7 µM

C#Cc1c(C)c(/C=C/C(C)=C/C=C/C(C)=C/C(=O)OC)n(C)c1C
inactive: [1] > 100 µM | [2] > 100 µM | [3] > 100 µM | [4] > 100 µM | [5] > 100 µM | [6] > 100 µM | [7] > 100 µM | [8] > 100 µM | [9] > 100 µM | [10] > 100 µM | [11] > 100 µM | [12] > 100 µM | [14] > 100 µM

N#C/N=C(/N)NCO
inactive: [1] > 37.8 µM | [2] > 100 µM | [3] > 100 µM | [4] > 100 µM | [5] > 100 µM | [6] > 100 µM | [7] > 54 µM | [8] > 78 µM | [9] > 51.4 µM | [10] > 100 µM | [11] > 100 µM | [12] > 100 µM | [13] > 100 µM | [14] > 100 µM

— ChEMBL document CHEMBL1201862, “PubChem BioAssay data set” (2004)
